According to patent US11131677B2 (University of Washington, priority 2018, dated 2021):
Non-standard residues stand in square brackets, D forms with d. Residues, ends and D or L forms follow the SMILES beside them. dPhe(4-NH2) = Nc1ccc(C[C@@H](N)C(=O)O)cc1; dPhe(4-Cl) = N[C@H](Cc1ccc(Cl)cc1)C(=O)O; Phe(4-NH2) = Nc1ccc(C[C@H](N)C(=O)O)cc1; d2Nal = N[C@H](Cc1ccc2ccccc2c1)C(=O)O; Lys(iPr) = CC(C)NCCCC[C@H](N)C(=O)O; d3Pal = N[C@H](Cc1cccnc1)C(=O)O

Experiments:
5-AR type 1 and 2 = assay: Dutasteride co-treatment with T in human hepatocyte culture; details: for Effect of dutasteride co-treatment on metabolite formation from T: p<0.01 for decreases
Method: (§1) A targeted metabolomics study was performed on previously collected samples from an oral T pharmacokinetics (PK) study (800 mg). T and its primary and secondary metabolites in serum were quantified, and PK data of these steroids were analyzed using the non-compartmental method. […] Additionally, T-metabolism study was also performed in human hepatocytes for 1 h. The media and cell pellets were collected for subsequent metabolomics and proteomics analyses, respectively. Effect of dutasteride treatment on androgen metabolome was also investigated, both in vivo and in vitro.

[1] = Oral testosterone pharmacokinetics and serum metabolite profile (LC-MS/MS) in men with acyline-induced experimental hypogonadism, with and without dutasteride; type: in vivo, human; details: for AUC0-24 h at T800, fold higher than with T200: T800 vs T200; for AUC 0-24 h / Cmax / Tmax / t½ / CL/F: serum; for Average AUC0-24 h with dutasteride, % with respect to T alone: T200+D vs T200; for Average AUC0-24 h with dutasteride, % as compared to T alone: T800+D vs T800; for AUC0-24 h, fold higher as compared to T AUC0-24 h: human serum, 800 mg dose; for CL/F: male, human, oral
Method: T emulsion in sesame oil, mixed with milk, was administered orally to human subjects with acyline-induced experimental hypogonadism. The blood samples were collected and the serum was isolated and stored in −80° C. Steroids and their metabolites were extracted from serum using protein precipitation followed by solid-phase extraction and analyzed by UPLC coupled with SCIEX 6500 MS/MS.
Clinical study design is discussed below. All subjects provided written, informed consent prior to any study procedures. The study was approved by the University of Washington (UW) Investigational Review Board Committee.
While study was conducted with 200, 400 and 800 mg T dose, only T200 and T800 were quantified. […] Samples were mixed for 1 min by vortex mixing, and then centrifuged for 10 min at 3500×g at 4° C. […] Samples (2 mL) were loaded onto the cartridges and flow through was discarded.
Data were acquired by Analyst 1.6 software.

human hepatocytes = assay: T metabolism in primary human hepatocytes (metabolite formation); details: for In vitro formation from T: primary human hepatocyte
Method: as §1

[2] = oral T, humans; cited from earlier work
UGT2B17 = biological target: T1, UGT2B17 (Homo sapiens, UniProt O75795); details: scaled by absolute UGT2B abundance in the intestine
T1 sequence (O75795 24-530): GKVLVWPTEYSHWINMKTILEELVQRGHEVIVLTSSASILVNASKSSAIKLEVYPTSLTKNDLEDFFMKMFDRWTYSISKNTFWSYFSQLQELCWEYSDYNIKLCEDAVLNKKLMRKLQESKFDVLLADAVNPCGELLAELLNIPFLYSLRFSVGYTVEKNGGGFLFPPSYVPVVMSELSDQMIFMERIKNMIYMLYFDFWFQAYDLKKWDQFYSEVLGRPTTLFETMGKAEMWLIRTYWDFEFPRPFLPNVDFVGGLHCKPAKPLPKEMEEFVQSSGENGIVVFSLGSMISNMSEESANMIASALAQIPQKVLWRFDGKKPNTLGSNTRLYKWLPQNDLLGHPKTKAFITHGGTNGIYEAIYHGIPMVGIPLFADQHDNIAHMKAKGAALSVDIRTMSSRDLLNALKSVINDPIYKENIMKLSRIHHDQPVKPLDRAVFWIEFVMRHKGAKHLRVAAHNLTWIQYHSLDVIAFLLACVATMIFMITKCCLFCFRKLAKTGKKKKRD

T production = details: normal men, single injection 300 μg/kg subcutaneous; cited from earlier work
UGT2B7 = UGT2B7 (Homo sapiens, UniProt P16662)
UGT2B7, sequence (P16662 24-529): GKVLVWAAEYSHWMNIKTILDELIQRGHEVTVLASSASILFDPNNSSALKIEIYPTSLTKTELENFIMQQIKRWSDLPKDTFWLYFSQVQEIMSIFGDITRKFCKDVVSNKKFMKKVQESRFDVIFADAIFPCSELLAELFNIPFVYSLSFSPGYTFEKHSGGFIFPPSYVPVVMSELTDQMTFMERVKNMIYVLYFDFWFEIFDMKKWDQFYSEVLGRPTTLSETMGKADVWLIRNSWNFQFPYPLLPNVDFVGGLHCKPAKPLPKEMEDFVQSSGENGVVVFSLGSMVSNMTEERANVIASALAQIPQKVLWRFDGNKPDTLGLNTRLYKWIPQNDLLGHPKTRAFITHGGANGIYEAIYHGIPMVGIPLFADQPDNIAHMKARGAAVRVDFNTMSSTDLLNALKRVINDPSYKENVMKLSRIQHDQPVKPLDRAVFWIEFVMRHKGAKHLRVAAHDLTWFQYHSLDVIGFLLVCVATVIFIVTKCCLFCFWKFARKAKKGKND

UGT2B15 = UGT2B15 (Homo sapiens, UniProt P54855)
UGT2B15, sequence (P54855 24-530): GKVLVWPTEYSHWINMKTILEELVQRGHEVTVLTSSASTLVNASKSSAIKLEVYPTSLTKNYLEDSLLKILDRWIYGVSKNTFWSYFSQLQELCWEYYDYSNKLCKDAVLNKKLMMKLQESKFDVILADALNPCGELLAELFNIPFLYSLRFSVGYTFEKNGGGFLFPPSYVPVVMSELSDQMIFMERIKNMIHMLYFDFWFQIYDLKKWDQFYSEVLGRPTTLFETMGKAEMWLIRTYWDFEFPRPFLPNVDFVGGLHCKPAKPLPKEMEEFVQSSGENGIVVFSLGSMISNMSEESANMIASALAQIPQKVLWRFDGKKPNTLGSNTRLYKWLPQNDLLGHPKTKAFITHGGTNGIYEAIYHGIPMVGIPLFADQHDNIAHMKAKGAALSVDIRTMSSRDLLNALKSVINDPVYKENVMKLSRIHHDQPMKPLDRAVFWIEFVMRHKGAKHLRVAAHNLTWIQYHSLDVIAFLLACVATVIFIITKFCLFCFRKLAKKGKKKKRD
Method: Oxazepam was used as a probe substrate for UGT2B15 activity by measuring oxazepam glucuronide formation (m/z 463.3→287.1, 269.1; DP 70; CE 20) with 10 μM oxazepam.

[3] = T200 + D (200 mg oral T with dutasteride)
[4] = T800 + D (800 mg oral T with dutasteride)

Structure (SMILES) | Effect of dutasteride co-treatment on metabolite formation from T (5-AR type 1 and 2) | Absolute level in pooled serum, fold of baseline eugonadal state ([1]; T200) | Average serum AUC0-24 h ([1]; T200) | Absolute level in pooled serum, fold of baseline eugonadal state ([1]; T800) | AUC 0-24 h ([1]; T200) | t½ ([1]; T200 (200 mg oral T)) | AUC 0-24 h ([1]; T200 + D) | t½ [1, 3] | AUC 0-24 h ([1]; T800) | t½ ([1]; T800 (800 mg oral T)) | AUC 0-24 h ([1]; T800 + D) | t½ [1, 4] | also measured
C[C@]12CC[C@H]3[C@@H](C[C@@H](O)C4=CC(=O)CC[C@@]43C)[C@@H]1CC[C@@H]2O [6β-OH-T, 6β-hydroxytestosterone] | significant decreases | – | – | – | – | – | – | – | – | – | – | – | –
C[C@]12CC[C@@H](O)C[C@@H]1CC[C@@H]1[C@@H]2CC[C@]2(C)C(=O)CC[C@@H]12 [A, Androsterone] | – | – | – | – | – | – | – | – | – | – | – | – | Circulating level, % lower in dutasteride treated samples vs T alone ([1]; T200+D): 30%; Circulating level, % lower in dutasteride treated samples vs T alone ([1]; T800+D): 87%
C[C@]12CCC(=O)C=C1CC[C@@H]1[C@@H]2CC[C@]2(C)C(=O)CC[C@@H]12 [AED, Androstenedione] | No significant changes | 2.3 fold | 373.7 nmol/L-h | 14.9 fold | 0.3737 µM·h | 12.7 h | 1.6349 µM·h | 8.3 h | 1.5518 µM·h | 6.8 h | 10.8444 µM·h | 5.2 h | In vitro formation from T (human hepatocytes): 46%; Circulating level, fold higher with dutasteride vs T alone ([1]; T200+D and T800+D): 5.7 fold; AUC0-24 h at T800, fold higher than with T200 [1]: 4.2 fold; Cmax ([1]; T200): 66.3 nM; Tmax ([1]; T200): 2 h; Cmax ([1]; T200 + D): 200 nM; Tmax ([1]; T200 + D): 2 h; Cmax ([1]; T800): 280 nM; Tmax ([1]; T800): 1 h; Cmax ([1]; T800 + D): 2300 nM; Tmax ([1]; T800 + D): 2 h
C[C@]12CC[C@@H](O[C@@H]3O[C@H](C(=O)O)[C@@H](O)[C@H](O)[C@H]3O)C[C@@H]1CC[C@@H]1[C@@H]2CC[C@]2(C)C(=O)CC[C@@H]12 [AG, Androsterone glucuronide] | significant decreases | 9.5 fold | 12,111 nmol/L-h | 29.7 fold | 12.1108 µM·h | 4.9 h | – | 4.5 h | 65.4278 µM·h | 4.5 h | 14.8677 µM·h | 6.3 h | Average AUC0-24 h with dutasteride, % with respect to T alone [1]: 21%; Average AUC0-24 h with dutasteride, % as compared to T alone [1]: 22%; AUC0-24 h, fold higher as compared to T AUC0-24 h [1]: 389 fold
C[C@]12CCC(=O)C[C@@H]1CC[C@@H]1[C@@H]2CC[C@]2(C)[C@@H](O)CC[C@@H]12 [DHT, 5α-Dihydrotestosterone] | significant decreases | 0.6 fold | 26.5 nmol/L-h | 2.2 fold | 0.0265 µM·h | 17.6 h | 0.0096 µM·h | 24.0 h | 0.0874 µM·h | 6.9 h | 0.0266 µM·h | 17.9 h | Average AUC0-24 h with dutasteride, % lower than T alone ([1]; T200): 64%; Average AUC0-24 h with dutasteride, % lower than T alone ([1]; T800): 70%; AUC0-24 h at T800, fold higher than with T200 [1]: 3.3 fold; Cmax ([1]; T200): 2 nM; Tmax ([1]; T200): 2 h; Cmax ([1]; T200 + D): 0.8 nM; Tmax ([1]; T200 + D): 4 h; Cmax ([1]; T800): 8.4 nM; Tmax ([1]; T800): 2 h; Cmax ([1]; T800 + D): 1.8 nM; Tmax ([1]; T800 + D): 4 h
C[C@]12CCC(=O)C[C@@H]1CC[C@@H]1[C@@H]2CC[C@]2(C)[C@@H](O[C@@H]3O[C@H](C(=O)O)[C@@H](O)[C@H](O)[C@H]3O)CC[C@@H]12 [DHTG, DHT-glucuronide] | – | 7.5 fold | – | 40.6 fold | – | – | – | – | – | – | – | – | –
C[C@]12CC[C@@H](O[C@@H]3O[C@H](C(=O)O)[C@@H](O)[C@H](O)[C@H]3O)C[C@H]1CC[C@@H]1[C@@H]2CC[C@]2(C)C(=O)CC[C@@H]12 [EtioG, Etiocholanolone glucuronide] | – | 13 fold | 2160 nmol/L-h | 39.5 fold | 2.1604 µM·h | 5.2 h | – | 10.5 h | 14.9815 µM·h | 7.8 h | 27.0917 µM·h | 9.9 h | Average AUC0-24 h with dutasteride, % with respect to T alone [1]: 151%; Average AUC0-24 h with dutasteride, % as compared to T alone [1]: 180%; AUC0-24 h, fold higher as compared to T AUC0-24 h [1]: 87 fold
C[C@]12CC[C@H]3[C@@H](CCC4=CC(=O)CC[C@@]43C)[C@@H]1CC[C@@H]2O [T, Testosterone, reference compound] | – | – | – | – | 0.0816 µM·h | 12.0 h | 0.0847 µM·h | 7.0 h | 0.1689 µM·h | 5.3 h | 0.2938 µM·h | 5.7 h | Oral bioavailability [2]: 2-8%; Contribution of UGT2B17 to intestinal glucuronidation (UGT2B17): 100%; Change in serum T levels with dutasteride ([1]; 200 mg T dose): no significant increase; Increase in circulating T concentrations ([1]; 4-fold increase in dose (200 to 800 mg)): 2 fold; CL/F ([1]; 200 mg, T200): 106000 mL/min; CL/F ([1]; 800 mg, T800): 259000 mL/min; CL/F ([1]; T200 + D): 120000 mL/min; CL/F ([1]; T800 + D): 147000 mL/min; Cmax ([1]; T200): 6 nM; Tmax ([1]; T200): 4 h; Cmax ([1]; T200 + D): 8.8 nM; Cmax ([1]; T800): 16.8 nM; Cmax ([1]; T800 + D): 33 nM; Tmax ([1]; T800 + D): 2 h
C[C@]12CC[C@H]3[C@@H](CCC4=CC(=O)CC[C@@]43C)[C@@H]1CC[C@@H]2O[C@@H]1O[C@H](C(=O)O)[C@@H](O)[C@H](O)[C@H]1O [TG, Testosterone glucuronide] | No significant changes | 78 fold | 857.2 nmol/L-h | 277 fold | 0.8572 µM·h | 4.4 h | 0.3734 µM·h | 4.3 h | 14.163 µM·h | 3.6 h | 8.5897 µM·h | 2.7 h | Level in hepatocyte media, fold lower than AG (human hepatocytes; human hepatocytes, T-treated): 3.7 fold; In vitro formation from T (human hepatocytes): 42%; Average AUC0-24 h with dutasteride, % with respect to T alone [1]: 43%; Average AUC0-24 h with dutasteride, % as compared to T alone [1]: 60%; Proportion of total T-related species in circulation ([1]; T dosed orally to men with experimental hypogonadism): 13%; Increase in TG/T ratio of dose-normalized AUC0-24 h ([1]; changing dose from 200 to 800 mg): 9.3 fold; AUC0-24 h, fold higher as compared to T AUC0-24 h [1]: 85 fold
CC(=O)Nc1ccc(C[C@H](NC(=O)[C@H](CO)NC(=O)[C@@H](Cc2cccnc2)NC(=O)[C@@H](Cc2ccc(Cl)cc2)NC(=O)[C@@H](Cc2ccc3ccccc3c2)NC(C)=O)C(=O)N[C@H](Cc2ccc(NC(C)=O)cc2)C(=O)N[C@@H](CC(C)C)C(=O)N[C@@H](CCCCNC(C)C)C(=O)N2CCC[C@H]2C(=O)N[C@H](C)C(N)=O)cc1 [acyline] (Ac-[d2Nal][dPhe(4-Cl)][d3Pal]S[Phe(4-NH2)](Ac)[dPhe(4-NH2)](Ac)L[Lys(iPr)]P[dA]-NH2) | – | – | – | – | – | – | – | – | – | – | – | – | Duration of suppression of T production (T production): ≥ 15 days
C[C@]12C=CC(=O)N[C@@H]1CC[C@@H]1[C@@H]2CC[C@]2(C)[C@@H](C(=O)Nc3cc(C(F)(F)F)ccc3C(F)(F)F)CC[C@@H]12 [dutasteride, reference compound] | – | – | – | – | – | – | – | – | – | – | – | – | Inhibition of 5-AR type 1 and 2 mediated metabolism of T (5-AR type 1 and 2; co-treatment with T): complete inhibition
Cc1ccc(NC(=O)c2ccc(CN3CCN(C)CC3)cc2)cc1Nc1nccc(-c2cccnc2)n1 [imatinib] | – | – | – | – | – | – | – | – | – | – | – | – | Inhibition of naloxone (UGT2B7) glucuronidation (UGT2B7): No significant inhibition; Inhibition of oxazepam (UGT2B15) glucuronidation (UGT2B15): No significant inhibition
